From patent US12275731B2, “Azaindole inhibitors of wild-type and mutant forms of LRRK2” (DANA-FARBER CANCER INSTITUTE, INC., priority 2018, dated 2025) come the findings set out here.

Common to all, as to assay: KinomeScan profiling
What all share (type): binding

Assay [1] concerns the target T1, ABL1(F317I)-nonphosphorylated (Homo sapiens, UniProt P00519, F317I).
T1 construct: purchased KinomeScan®
The settings on record: read-out: % control. The method in brief: (§1)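 1 μM cpd in DMSO; 468-kinase panel; readout RLU. % ctrl = (cpd − pos ctrl)/(neg ctrl − pos ctrl) ×100. Pos ctrl = 0%, DMSO = 100%. Hit cut-off <35%.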

The next assay has as its target T2, AKT1 (Homo sapiens, UniProt P31749).
T2 construct: purchased KinomeScan®
Particulars: AKT1, 1 μM; read-out: % control. The method in brief:
as §1

Another assay addresses CAMK2B (Homo sapiens, UniProt Q13554). The settings on record: read-out: % control. The method in brief: as §1
The next assay addresses DYRK1B (Homo sapiens, UniProt Q9Y463). Particulars: read-out: % control. The method in brief: as §1
The next assay deals with FES (Homo sapiens, UniProt P07332). The settings on record: read-out: % control. The method in brief:
as §1

For the next assay, the target named is FGFR3 (Homo sapiens, UniProt P22607). Particulars: FGFR3, 1 μM; read-out: % control. The method in brief:
as §1

The target in another assay is T3, MST1 (Homo sapiens, UniProt Q13043).
T3 sequence (Q13043 1-487): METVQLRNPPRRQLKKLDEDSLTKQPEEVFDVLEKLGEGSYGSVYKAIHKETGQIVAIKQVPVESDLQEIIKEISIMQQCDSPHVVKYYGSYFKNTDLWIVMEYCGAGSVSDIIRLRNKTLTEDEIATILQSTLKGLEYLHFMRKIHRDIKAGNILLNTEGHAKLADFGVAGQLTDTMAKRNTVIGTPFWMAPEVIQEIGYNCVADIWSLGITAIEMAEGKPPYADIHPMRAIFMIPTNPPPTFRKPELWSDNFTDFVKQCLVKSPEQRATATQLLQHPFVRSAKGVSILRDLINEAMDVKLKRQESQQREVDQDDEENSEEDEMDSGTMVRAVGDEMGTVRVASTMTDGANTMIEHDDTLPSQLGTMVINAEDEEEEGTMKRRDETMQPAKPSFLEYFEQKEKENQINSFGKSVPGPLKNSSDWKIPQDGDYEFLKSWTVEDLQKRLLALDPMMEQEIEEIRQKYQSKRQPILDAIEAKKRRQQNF
Particulars: MST1, 1 μM; read-out: % control. The method in brief: as §1

The next assay deals with NIM1 (Homo sapiens, UniProt Q8IY84). The settings on record: NIM1, 1 μM; read-out: % control. The method in brief: as §1
Another assay concerns the target PCTK3 (Homo sapiens, UniProt Q07002). Particulars: PCTK3, 1 μM; read-out: % control. The method in brief:
as §1

A further assay concerns the target PYK2 (Homo sapiens, UniProt Q14289). Particulars: PYK2, 1 μM; read-out: % control. The method in brief:
as §1

The target in a further assay is T4, SGK3 (Homo sapiens, UniProt Q96BR1).
T4 construct: purchased KinomeScan® (panel service)
T4 sequence (Q96BR1 1-496): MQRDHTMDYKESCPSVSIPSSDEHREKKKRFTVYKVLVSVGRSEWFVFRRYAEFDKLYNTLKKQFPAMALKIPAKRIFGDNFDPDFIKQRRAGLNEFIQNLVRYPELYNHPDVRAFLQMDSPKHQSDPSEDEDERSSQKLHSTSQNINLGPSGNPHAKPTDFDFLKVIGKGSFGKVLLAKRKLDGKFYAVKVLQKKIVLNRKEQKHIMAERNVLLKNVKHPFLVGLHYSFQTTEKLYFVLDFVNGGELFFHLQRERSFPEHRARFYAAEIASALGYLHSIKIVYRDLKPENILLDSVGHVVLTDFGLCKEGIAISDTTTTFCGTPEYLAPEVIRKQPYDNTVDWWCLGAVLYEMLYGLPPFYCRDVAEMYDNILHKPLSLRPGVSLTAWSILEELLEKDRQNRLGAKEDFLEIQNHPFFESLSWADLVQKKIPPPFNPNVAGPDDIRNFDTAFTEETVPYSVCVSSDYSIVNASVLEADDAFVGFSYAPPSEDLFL
The settings on record: SGK3, 1 μM; read-out: % control. The method in brief: as §1

A further assay addresses WNK3 (Homo sapiens, UniProt Q9BYP7). The settings on record: WNK3, 1 μM; read-out: % control. The method in brief: as §1

Sequence of FES (P07332 whole entry): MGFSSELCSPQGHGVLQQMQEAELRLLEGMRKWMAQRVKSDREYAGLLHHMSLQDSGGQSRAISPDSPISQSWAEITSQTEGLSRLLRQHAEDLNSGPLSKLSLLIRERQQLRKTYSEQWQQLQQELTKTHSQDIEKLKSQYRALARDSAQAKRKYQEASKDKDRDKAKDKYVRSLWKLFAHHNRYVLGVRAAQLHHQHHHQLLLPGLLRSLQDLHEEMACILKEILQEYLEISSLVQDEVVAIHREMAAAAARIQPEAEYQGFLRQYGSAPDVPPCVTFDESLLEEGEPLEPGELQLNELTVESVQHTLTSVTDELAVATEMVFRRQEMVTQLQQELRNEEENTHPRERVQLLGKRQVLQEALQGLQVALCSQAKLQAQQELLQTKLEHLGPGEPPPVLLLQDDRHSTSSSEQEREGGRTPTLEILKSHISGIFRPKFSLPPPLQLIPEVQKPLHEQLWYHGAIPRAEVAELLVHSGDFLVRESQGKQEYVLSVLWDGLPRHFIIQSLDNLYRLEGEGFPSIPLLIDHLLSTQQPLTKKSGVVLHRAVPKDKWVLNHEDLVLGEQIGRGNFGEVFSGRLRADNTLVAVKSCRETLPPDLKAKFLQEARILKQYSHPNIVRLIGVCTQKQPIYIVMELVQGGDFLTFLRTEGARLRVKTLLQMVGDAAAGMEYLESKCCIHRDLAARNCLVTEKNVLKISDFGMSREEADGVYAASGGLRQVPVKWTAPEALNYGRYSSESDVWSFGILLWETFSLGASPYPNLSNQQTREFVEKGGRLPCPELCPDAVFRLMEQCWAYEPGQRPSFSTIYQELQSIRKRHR
Sequence of WNK3 (Q9BYP7 whole entry): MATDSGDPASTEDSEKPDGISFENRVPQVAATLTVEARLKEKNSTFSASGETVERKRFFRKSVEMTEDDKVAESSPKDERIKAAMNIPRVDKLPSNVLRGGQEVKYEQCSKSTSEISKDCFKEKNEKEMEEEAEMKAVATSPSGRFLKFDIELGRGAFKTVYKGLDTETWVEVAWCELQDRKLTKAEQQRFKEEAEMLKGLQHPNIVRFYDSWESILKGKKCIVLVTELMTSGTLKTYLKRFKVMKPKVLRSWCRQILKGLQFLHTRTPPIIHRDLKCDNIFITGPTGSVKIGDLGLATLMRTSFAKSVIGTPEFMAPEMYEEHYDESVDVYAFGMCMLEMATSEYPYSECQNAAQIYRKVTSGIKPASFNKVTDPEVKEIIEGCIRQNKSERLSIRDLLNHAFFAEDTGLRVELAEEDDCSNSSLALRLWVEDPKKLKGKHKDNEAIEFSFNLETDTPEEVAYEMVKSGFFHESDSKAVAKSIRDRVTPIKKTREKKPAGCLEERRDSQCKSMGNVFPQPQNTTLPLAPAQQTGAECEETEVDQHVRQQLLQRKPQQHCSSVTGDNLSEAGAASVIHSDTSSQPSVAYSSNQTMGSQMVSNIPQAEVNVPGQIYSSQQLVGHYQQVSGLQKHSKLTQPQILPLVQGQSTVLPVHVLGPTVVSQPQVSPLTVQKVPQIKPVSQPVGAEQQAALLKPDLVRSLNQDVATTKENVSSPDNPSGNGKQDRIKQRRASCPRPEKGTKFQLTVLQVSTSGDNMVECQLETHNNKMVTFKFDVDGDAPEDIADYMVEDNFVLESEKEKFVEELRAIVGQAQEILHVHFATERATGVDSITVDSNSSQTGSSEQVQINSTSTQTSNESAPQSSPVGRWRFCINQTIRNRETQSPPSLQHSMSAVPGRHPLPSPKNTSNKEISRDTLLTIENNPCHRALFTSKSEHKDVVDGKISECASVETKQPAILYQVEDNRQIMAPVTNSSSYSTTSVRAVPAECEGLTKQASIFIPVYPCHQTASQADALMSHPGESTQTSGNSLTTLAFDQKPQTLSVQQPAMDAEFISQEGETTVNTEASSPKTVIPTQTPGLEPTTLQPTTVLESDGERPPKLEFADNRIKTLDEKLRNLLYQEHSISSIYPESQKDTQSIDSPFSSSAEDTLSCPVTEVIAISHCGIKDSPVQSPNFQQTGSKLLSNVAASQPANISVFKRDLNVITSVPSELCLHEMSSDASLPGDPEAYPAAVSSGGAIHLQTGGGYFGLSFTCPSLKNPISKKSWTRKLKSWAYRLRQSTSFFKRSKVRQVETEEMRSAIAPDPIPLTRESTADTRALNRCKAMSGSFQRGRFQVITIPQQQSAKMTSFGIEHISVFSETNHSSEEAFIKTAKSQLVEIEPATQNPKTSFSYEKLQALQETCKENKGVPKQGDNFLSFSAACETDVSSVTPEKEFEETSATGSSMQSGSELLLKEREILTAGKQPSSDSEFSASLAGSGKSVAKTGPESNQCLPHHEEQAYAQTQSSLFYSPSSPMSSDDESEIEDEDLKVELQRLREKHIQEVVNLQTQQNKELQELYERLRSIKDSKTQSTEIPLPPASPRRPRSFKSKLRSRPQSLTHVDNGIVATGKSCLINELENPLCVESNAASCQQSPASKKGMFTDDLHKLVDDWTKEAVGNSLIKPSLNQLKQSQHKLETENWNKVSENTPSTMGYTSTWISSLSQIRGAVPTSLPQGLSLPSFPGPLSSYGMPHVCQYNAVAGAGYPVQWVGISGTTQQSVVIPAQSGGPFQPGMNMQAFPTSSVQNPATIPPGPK
Sequence of NIM1 (Q8IY84 whole entry): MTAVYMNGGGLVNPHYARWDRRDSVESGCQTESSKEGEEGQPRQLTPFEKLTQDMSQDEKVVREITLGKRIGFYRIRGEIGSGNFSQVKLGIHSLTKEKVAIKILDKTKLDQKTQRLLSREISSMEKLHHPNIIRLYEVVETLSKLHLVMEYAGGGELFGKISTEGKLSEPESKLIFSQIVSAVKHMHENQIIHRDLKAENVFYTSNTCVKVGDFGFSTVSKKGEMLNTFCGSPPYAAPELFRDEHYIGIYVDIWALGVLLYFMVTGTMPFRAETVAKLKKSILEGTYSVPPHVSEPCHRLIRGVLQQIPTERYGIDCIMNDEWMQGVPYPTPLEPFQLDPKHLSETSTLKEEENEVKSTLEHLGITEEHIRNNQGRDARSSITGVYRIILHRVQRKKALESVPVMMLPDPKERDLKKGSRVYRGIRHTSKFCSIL
Sequence of PCTK3 (Q07002 whole entry): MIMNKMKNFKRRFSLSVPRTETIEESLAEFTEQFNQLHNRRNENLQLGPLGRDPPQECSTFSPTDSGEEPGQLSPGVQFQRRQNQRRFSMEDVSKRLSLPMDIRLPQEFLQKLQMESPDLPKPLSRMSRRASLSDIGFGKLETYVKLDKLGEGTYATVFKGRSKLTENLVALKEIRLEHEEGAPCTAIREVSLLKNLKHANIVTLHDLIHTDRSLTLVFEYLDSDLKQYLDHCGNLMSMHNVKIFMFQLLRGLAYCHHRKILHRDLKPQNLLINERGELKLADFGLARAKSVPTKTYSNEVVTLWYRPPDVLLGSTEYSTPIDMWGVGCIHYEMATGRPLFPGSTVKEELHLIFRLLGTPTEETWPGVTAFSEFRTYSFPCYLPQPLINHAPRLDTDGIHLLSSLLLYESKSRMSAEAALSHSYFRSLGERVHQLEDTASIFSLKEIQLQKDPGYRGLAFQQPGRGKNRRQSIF
Sequence of CAMK2B (Q13554 whole entry): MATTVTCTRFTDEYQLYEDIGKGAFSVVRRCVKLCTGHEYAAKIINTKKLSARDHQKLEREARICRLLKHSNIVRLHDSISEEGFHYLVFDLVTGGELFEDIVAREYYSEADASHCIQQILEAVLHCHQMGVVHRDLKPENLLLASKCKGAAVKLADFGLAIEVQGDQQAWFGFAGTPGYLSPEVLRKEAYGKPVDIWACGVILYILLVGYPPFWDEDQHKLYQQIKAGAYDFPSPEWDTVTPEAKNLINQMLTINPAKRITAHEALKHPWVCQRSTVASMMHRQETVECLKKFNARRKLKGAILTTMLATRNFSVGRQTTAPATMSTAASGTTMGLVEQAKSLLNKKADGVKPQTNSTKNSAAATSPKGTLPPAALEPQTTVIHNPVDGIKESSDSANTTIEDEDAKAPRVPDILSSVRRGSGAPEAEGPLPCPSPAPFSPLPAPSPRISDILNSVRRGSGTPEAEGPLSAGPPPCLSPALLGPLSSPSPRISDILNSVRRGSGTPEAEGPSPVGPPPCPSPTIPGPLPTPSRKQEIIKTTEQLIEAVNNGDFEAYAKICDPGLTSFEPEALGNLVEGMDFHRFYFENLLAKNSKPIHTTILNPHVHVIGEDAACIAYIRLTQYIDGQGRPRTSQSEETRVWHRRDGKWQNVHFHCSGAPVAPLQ
Sequence of FGFR3 (P22607 23-806): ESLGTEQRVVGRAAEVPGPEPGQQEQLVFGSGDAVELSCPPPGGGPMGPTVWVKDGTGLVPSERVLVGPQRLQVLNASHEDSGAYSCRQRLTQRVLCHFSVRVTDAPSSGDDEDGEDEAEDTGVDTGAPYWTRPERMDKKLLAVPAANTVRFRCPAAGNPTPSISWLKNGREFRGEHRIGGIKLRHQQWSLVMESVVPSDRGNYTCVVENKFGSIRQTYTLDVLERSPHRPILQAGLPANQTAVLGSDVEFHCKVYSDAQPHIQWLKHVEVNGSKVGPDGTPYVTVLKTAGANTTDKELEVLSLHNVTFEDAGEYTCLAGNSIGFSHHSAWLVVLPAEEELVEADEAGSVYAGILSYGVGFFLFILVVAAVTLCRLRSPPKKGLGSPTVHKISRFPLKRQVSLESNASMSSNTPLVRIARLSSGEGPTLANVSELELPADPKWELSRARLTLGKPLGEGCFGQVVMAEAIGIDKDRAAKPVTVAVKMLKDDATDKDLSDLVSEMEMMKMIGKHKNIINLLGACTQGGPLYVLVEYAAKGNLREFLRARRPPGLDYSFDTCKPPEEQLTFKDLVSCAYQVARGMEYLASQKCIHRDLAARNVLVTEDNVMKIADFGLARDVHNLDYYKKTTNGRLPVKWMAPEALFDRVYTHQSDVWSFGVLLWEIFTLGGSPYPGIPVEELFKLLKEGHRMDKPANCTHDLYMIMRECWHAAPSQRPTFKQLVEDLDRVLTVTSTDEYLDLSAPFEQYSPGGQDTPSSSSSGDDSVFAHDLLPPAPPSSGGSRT

On to `CNc1c(-c2ccc(C(=O)N3CCC(N4CCOCC4)CC3)cc2)cnc2[nH]cc(Cl)c12` [Compound 96, (4-(3-chloro-4-(methylamino)-1H-pyrrolo[2,3-b]pyridin-5-yl)phenyl)(4-morpholinopiperidin-1-yl)methanone], for which the remaining binding at 1 µM in [1] turned out to be 100%; on AKT1, 100%; at CAMK2B, 100%; at DYRK1B it was 100%; on FES, 95%; on FGFR3 it was 82%. In addition, the remaining binding at 1 µM at MST1 was found to be 81%; on NIM1 it was 50%; on PCTK3, 100%; at PYK2, 92%; at SGK3, 48%; on WNK3 it was 73%.

`O=C(c1ccc(-c2cnc3[nH]cc(Cl)c3c2NC2CCCC2)cc1)N1CCC(N2CCOCC2)CC1` [Compound 101, (4-(3-chloro-4-(cyclopentylamino)-1H-pyrrolo[2,3-b]pyridin-5-yl)phenyl)(4-morpholinopiperidin-1-yl)methanone]: the remaining binding at 1 µM in assay [1] was found to be 100%; at AKT1 it was 96%; on CAMK2B, 99%; at DYRK1B, 89%; at FES, 72%; on FGFR3, 67%. The remaining binding at 1 µM worked out at 82% at MST1; 99% at NIM1; 96% at PCTK3; 78% at PYK2; 96% on SGK3; 92% at WNK3.

With `CNc1c(-c2cnn([C@H]3CCN(C(C)=O)C[C@@H]3F)c2)cnc2[nH]cc(Cl)c12` [Compound 77, 1-((3S,4S)-4-(4-(3-chloro-4-(methylamino)-1H-pyrrolo[2,3-b]pyridin-5-yl)-1H-pyrazol-1-yl)-3-fluoropiperidin-1-yl)ethan-1-one], the remaining binding at 1 µM in assay [1] amounted to 100%; at AKT1, 100%; at CAMK2B it was 100%; on DYRK1B it was 100%; at FES, 95%; at FGFR3, 64%. Further, the remaining binding at 1 µM at MST1 came out at 93%; on NIM1, 69%; at PCTK3, 100%; on PYK2, 89%; on SGK3 it was 37%; at WNK3 it was 86%.
